Laboratory results taken from ChEMBL document CHEMBL1155610, “A new indanone from the marine cyanobacterium Lyngbya majuscula that inhibits hypoxia-induced activation of the VEGF promoter in Hep3B cells” (J Nat Prod, 2000).
Active and inactive are the calls of the source. No cut-off for these calls is given here.

Legend:
Format in all cases: functional, cell-based
Hep 3B2 [1] = assay: Inhibition of hypoxia-induced VEGF165 protein secretion in human Hep3B cells after 18 hrs by ELISA
Hep 3B2 [2] = assay: Growth inhibition of human Hep3B cells after 18 hrs
Hep 3B2 [3] = assay: Inhibition of hypoxia-induced activation of VEGF gene promoter in human Hep3B cells after 18 hrs by luciferase reporter gene assay
Hep 3B2 [4] = assay: Effect on luciferase reporter gene expression in human Hep3B cells after 18 hrs

**Q.** `COC1CC(=O)c2c(C=O)cc(C)cc21` (centres undefined) was tested. Which Activity (Hep 3B2 [1]) did it give?
**A.** Its Activity is “inactive”.

**Q.** What about the Activity (Hep 3B2 [2]) of the same compound?
**A.** The Activity was “inactive”.

**Q.** And the IC50 (Hep 3B2 [3])?
**A.** Its IC50 is 25 µM.

**Q.** What about the Activity (Hep 3B2 [4]) of the same compound?
**A.** The Activity was “inactive”.
